From patent US8252832B2, “Kinesin inhibitors as cancer therapeutics” (Novartis AG, priority 2007, dated 2012)
Like-named read-outs stand apart in the source and are kept apart here.

Tests used:
Assay in all cases: CellTiter-Glo, hematologic malignancy panel
Format in all cases: cell-based
HL60 = settings: for GI50: Homo sapiens, HL-60, AML
Text: (§1) Identification of tumor types that are the most sensitive to the KSP inhibitors of the present invention can be accomplished using an unbiased approach that uses several cell-based assays. The assays chosen were as follows: • CellTiter-Glo®. This is an assay designed to measure ATP concentration in a cell culture, and can be correlated to cell number. Briefly CellTiter-Glo® (Promega Corporation) is a homogeneous method using the single CellTiter-Glo® reagent to detect ATP wherein ATP in the assay drives the activity of a thermostable luciferase to create a luminescent signal which can then be measured and correlated with the number of viable cells. Briefly, for adherent cells, 1,000 to 5,000 cells/well were plated in 96-well plates (100 μl/well) and let to adhere for 24 hours before being treated with drug. For non-adherent cells, 1,000 to 10,000 cells/well were plated in 96-well plates (100 μl/well) and immediately treated with drug. Drug dilutions were prepared in DMSO at 1000 times the final concentration. These dilutions were then diluted 1/100 in growth media before being added to the cells (11 μl/well) to achieve the desired final concentration. After 48 h in a 37° C. tissue culture incubator, the plates were processed for the CellTiter-Glo®assay according to the manufacturer's instructions. Protocol for a 72 hour cell proliferation assay: The 72 hour assay was performed the same way as the 48 hour assay except for the following modifications: For adherent cells, 500 to 5,000 cells/well were plated in 96-well plates (90 μl/well cell growth media) and left to adhere for 24 hours before being treated with drug. For non-adherent cells, 1,000 to 10,000 cells/well were plated in 96-well plates (90 μl/well cell growth media) and immediately treated with drug. Data values presented represent the concentration of test compound required for a 50% reduction in growth. • LDH release. The Cytotoxicity Detection KitPLUS (LDH) assay (Roche Diagnostics, Manheim, Germany) measures the amount of LDH released in the media by dying cells; LDH catalyzes the conversion of lactate into pyruvate. The enzymatic reaction is coupled to a chemical reaction that uses a tetrazolium salt to form a formazan that is red and can be detected by its absorbance at 490 nm. This assay measures the amount of cell death after drug treatment. Cells were plated at 10,000 cells/well in 96-well plates (100 μl/well). Adherent cells were let to adhere for 24 hours before being treated with drug, whereas non-adherent cells were immediately treated with drug. Drug dilutions were prepared in DMSO at 1000 times the final concentration. These dilutions were then diluted 1/100 in growth media before being added to the cells (11 μl/well) to achieve the desired final concentration. After 48 h in a 37° C. tissue culture incubator, the plates were processed for the Cytotoxicity Detection KitPLUS (LDH) assay according to the manufacturer's instructions. The media only values were subtracted from all the data points before analysis. Data values presented correspond to the compound concentration wherein LDH output is at half maximal level. • Caspase-Glo® 3/7. The Caspase-Glo® 3/7 Assay (Promega Corporation) is a homogeneous luminescent assay that measures caspase-3/7 activities. The assay provides a proluminescent caspase-3/7 DEVD-aminoluciferin substrate and a thermostable luciferase in a reagent optimized for caspase-3/7 activity, luciferase activity and cell lysis. Adding the single Caspase-Glo® 3/7 Reagent results in cell lysis, followed by caspase cleavage of the substrate. This liberates free aminoluciferin, which is consumed by the luciferase, generating a luminescent signal. The signal is proportional to caspase-3/7 activity. Data values presented correspond to the compound concentration wherein caspase 3/7 activity is at half maximal level. […]

MOLT-4 = settings: ALL; for GI50: Homo sapiens
Text: as §1

SEM-Luc = settings: ALL
Text: as §1

H929 = settings: for GI50: Homo sapiens, NCI-H929, MM
Text: as §1

SUDHL-4 = settings: for GI50: Homo sapiens, SU-DHL-4, NHL
Text: as §1

CCRF-CEM = settings: ALL; for GI50: Homo sapiens
Text: as §1

RPMI-8226 = settings: MM; for GI50: Homo sapiens
Text: as §1

K562 = settings: CML; for GI50: Homo sapiens
Text: as §1

OPM2 = settings: for GI50: Homo sapiens, OPM-2, MM
Text: as §1

KMS11 = settings: for GI50: Homo sapiens, KMS-11, MM
Text: as §1

KMS18-Luc = settings: MM
Text: as §1

HL60-Luc = settings: AML; for GI50: HL-60-Luc
Text: as §1

U937 = settings: for GI50: Homo sapiens, U-937, NHL
Text: as §1

L363 = settings: for GI50: Homo sapiens, L-363, MM
Text: as §1

AML-193 = system: AML-193
Text: as §1

[1] = GI50 in nM, read-out: Log(GI50) (converted)

CC(C)(C)[C@H](c1nc(-c2cc(F)ccc2F)cn1Cc1ccccc1)N(CC[C@H](N)CF)C(=O)CO [Compound IIa]
Differential vs mean Log(GI50) (HL60; AML): 0.313
GI50 (HL60; [1]): 0.165 nM
GI50 (HL60; read-out: GI50): 0.17 nM
Differential vs mean Log(GI50) (MOLT-4): 0.010
GI50 (MOLT-4; [1]): 0.331 nM
GI50 (MOLT-4; read-out: GI50): 0.33 nM
Differential vs mean Log(GI50) (SEM-Luc): 0.354
GI50 (SEM-Luc; [1]): 0.15 nM
GI50 (SEM-Luc; read-out: GI50): 0.15 nM
GI50 (H929; [1]): 0.335 nM
GI50 (H929; read-out: GI50): 0.34 nM
Differential vs mean Log(GI50) (H929; MM): 0.005
GI50 (SUDHL-4; [1]): 0.447 nM
GI50 (SUDHL-4; read-out: GI50): 0.45 nM
Differential vs mean Log(GI50) (SUDHL-4; NHL): −0.120
Differential vs mean Log(GI50) (CCRF-CEM): 0.315
GI50 (CCRF-CEM; [1]): 0.164 nM
GI50 (CCRF-CEM; read-out: GI50): 0.16 nM
GI50 (RPMI-8226; [1]): 0.262 nM
GI50 (RPMI-8226; read-out: GI50): 0.26 nM
Differential vs mean Log(GI50) (RPMI-8226): 0.112
Differential vs mean Log(GI50) (K562): 0.210
GI50 (K562; [1]): 0.209 nM
GI50 (K562; read-out: GI50): 0.21 nM
GI50 (OPM2; [1]): 0.135 nM
GI50 (OPM2; read-out: GI50): 0.14 nM
Differential vs mean Log(GI50) (OPM2; MM): 0.400
GI50 (KMS11; [1]): 0.483 nM
GI50 (KMS11; read-out: GI50): 0.48 nM
Differential vs mean Log(GI50) (KMS11; MM): −0.154
Differential vs mean Log(GI50) (KMS18-Luc): −0.184
GI50 (KMS18-Luc; [1]): 0.518 nM
GI50 (KMS18-Luc; read-out: GI50): 0.52 nM
Differential vs mean Log(GI50) (HL60-Luc): −0.173
GI50 (HL60-Luc; [1]): 0.505 nM
GI50 (HL60-Luc; read-out: GI50): 0.51 nM
GI50 (U937; [1]): 0.2 nM
GI50 (U937; read-out: GI50): 0.2 nM
Differential vs mean Log(GI50) (U937; NHL): 0.229
GI50 (L363; [1]): 0.13 nM
GI50 (L363; read-out: GI50): 0.13 nM
Differential vs mean Log(GI50) (L363; MM): 0.416
Differential vs mean Log(GI50) (AML-193): 0.489
GI50 (AML-193; [1]): 0.11 nM
GI50 (AML-193; read-out: GI50): 0.11 nM
